Measurements: patent US20190358181A1, “METHODS FOR AUTISM SPECTRUM DISORDER PHARMACOTHERAPY” (priority 2017, published 2019)

Tested on: 610 metabolites from 63 biochemical pathways
Assay: Targeted broad-spectrum plasma metabolomic analysis (LC-MS/MS), paired pre-infusion vs post-infusion (2-days and 6-weeks)
Assay type: in vivo, human
Details: for Linear Ratio / VIP Score / Z Abs / Z Score: plasma
Description: Targeted, broad-spectrum, plasma metabolomic analysis of 610 metabolites from 63 biochemical pathways was performed by high performance liquid chromatography and tandem mass spectrometry (LC-MS/MS) on the samples collected from patients in Example 1. Venous blood was collected between the hours of 8 am and 5 pm, at least 3 hours after the last meal, into lithium-heparin vacutainer tubes (BD #367884). Plasma was separated by centrifugation at 900 g×10 minutes at room temperature within one hour of collection. The resulting fresh lithium-heparin plasma was transferred to labeled 1.2 ml or 2.0 ml externally threaded cryotubes with a minimum headspace air gap for storage at −80° C. for analysis. Samples were analyzed on an AB SCIEX QTRAP 5500 triple quadrupole mass spectrometer equipped with a Turbo V electrospray ionization (ESI) source, Shimadzu LC-20A UHPLC system, and a PAL CTC autosampler. Typically, 90 μl of plasma was thawed on ice and transferred to a 1.7 ml Eppendorf tube. Five (5.0) μl of a cocktail containing 25-35 commercial stable isotope internal standards, and 5.0 μl of 57 stable isotope internal standards that were custom-synthesized in E. coli NCM3722, Caenorhabditis elegans N2, and Komagataella phaffii (ATCC 76273; formerly known as Pichia pastoris) by metabolic labeling with 13C-glucose and 13C-bicarbonate, were added, mixed, and incubated for 10 min at 20° C. to permit small molecules and vitamins in the internal standards to associate with plasma binding proteins. Macromolecules (protein, DNA, RNA, glycans, etc.) were precipitated by extraction with 4 volumes (400 μl) of cold (−20° C.), acetonitrile:methanol (50:50) (LCMS grade, Cat #LC015-2.5 and GC230-4, Burdick & Jackson, Honeywell), vortexed vigorously, and incubated on crushed ice for 10 min, then removed by centrifugation at 16,000 g×10 min at 4° C. The supernatants containing the extracted metabolites and internal standards in the resulting 40:40:20 solvent mix of acetonitrile:methanol:water were transferred to labeled cryotubes and stored at −80° C. for LCMS/MS analysis.
LC-MS/MS analysis was performed by scheduled multiple reaction monitoring (sMRM) under Analyst v1.6.2 software control in both negative and positive mode with rapid polarity switching (50 ms). Nitrogen was used for curtain gas (set to 30), collision gas (set to high), ion source gas 1 and 2 (set to 35). The source temperature was 500° C. Spray voltage was set to −4500 V in negative mode and 5500 V in positive mode. The values for Q1 and Q3 mass-to-charge ratios (m/z), declustering potential (DP), entrance potential (EP), collision energy (CE), and collision cell exit potential (CXP) were determined and optimized for each MRM for each metabolite. Ten microliters of extract was injected by PAL CTC autosampler via a 10 μl stainless steel loop into a 250 mm×2.0 mm, 4 μm polymer based NH2 HPLC column (Asahipak NH2P-40 2E, Showa Denko America, Inc., NY) held at 25° C. for chromatographic separation. The mobile phase was solvent A: 95% water with 20 mM (NH4)2CO3 (Sigma, Fluka Cat #74415-250G-F), 5% acetonitrile, and 38 mM NH4OH (Sigma, Fluka Cat #17837-100ML), final pH 9.75; solvent B: 100% acetonitrile. Separation was achieved using the following gradient: 0-3.5 min: 95% B, 3.6-8 min: 85% B, 8.1-13 min: 75% B, 13.5-35 min: 0% B, 36-46 min: 95% B, 46.1 min: end. The flow rate was 200 μl/min. Pump pressures ranged from 920-2600 psi over the course of the gradient. All the samples were kept at 4° C. during analysis. The chromatographic peaks were identified using MultiQuant (v3.0, Sciex), confirmed by manual inspection, and the peak areas integrated. […]

[1] = S-Adenosylhomocysteine, 6-weeks
[2] = SAM, SAH, Methionine, Cysteine, Glutathione, 2-days
[3] = SAM, SAH, Methionine, Cysteine, Glutathione, 6-weeks
[4] = Sphingomyelin Metabolism, 2-days
[5] = Sphingomyelin Metabolism, 6-weeks
[6] = Subtotal, all pathways, 6-weeks
[7] = Subtotals, all pathways, 2-days
[8] = Taurine, Hypotaurine Metabolism, 2-days
[9] = Tryptophan, Kynurenine, Serotonin, Melatonin, 6-weeks
[10] = Tryptophan, Kynurenine, Serotonin, 2-days
[11] = Tyrosine and Phenylalanine Metabolism, 2-days

## Cc1ccc(C(=O)Nc2ccc(S(=O)(=O)O)c3cc(S(=O)(=O)O)cc(S(=O)(=O)O)c23)cc1NC(=O)c1cccc(NC(=O)Nc2cccc(C(=O)Nc3cc(C(=O)Nc4ccc(S(=O)(=O)O)c5cc(S(=O)(=O)O)cc(S(=O)(=O)O)c45)ccc3C)c2)c1 [Suramin, suramin]
Purine Metabolism, 2-days
  Fraction of Impact (VIP Score) Explained (% of 119.7): 15%
  Impact (Sum VIP Score): 17.6
  Increased: 4
  Observed Hits in the Top 61 Metabolites: 9
Purine Metabolism, 6-weeks
  Decreased: 2
  Fold Enrichment (Obs/Exp): 1.7
  Fraction of Impact (VIP Score) Explained (% of 94.6): 11%
  Impact (Sum VIP Score): 10.2
  Increased: 3
  Observed Hits in the Top 48 Metabolites: 5
Purine, 6-weeks
  Linear Ratio: 1.307
  VIP Score: 1.980
  Z Abs: 1.650
  Z Score: 1.650
Pyrimidine Metabolism, 2-days
  Decreased: 1
  Fold Enrichment (Obs/Exp): 1.6
  Fraction of Impact (VIP Score) Explained (% of 119.7): 4%
  Impact (Sum VIP Score): 4.3
  Increased: 1
  Observed Hits in the Top 61 Metabolites: 2
Pyrimidine Metabolism, 6-weeks
  Decreased: 0
  Fold Enrichment (Obs/Exp): 2.0
  Fraction of Impact (VIP Score) Explained (% of 94.6): 4%
  Impact (Sum VIP Score): 4.2
  Increased: 2
  Observed Hits in the Top 48 Metabolites: 2
[1]
  Linear Ratio: 1.417
  VIP Score: 1.894
  Z Abs: 0.971
  Z Score: 0.971
[2]
  Decreased: 1
  Fold Enrichment (Obs/Exp): 1.4
  Fraction of Impact (VIP Score) Explained (% of 119.7): 5%
  Impact (Sum VIP Score): 5.6
  Increased: 2
  Observed Hits in the Top 61 Metabolites: 3
[3]
  Decreased: 0
  Fold Enrichment (Obs/Exp): 3.0
  Fraction of Impact (VIP Score) Explained (% of 94.6): 10%
  Impact (Sum VIP Score): 9.5
  Increased: 5
  Observed Hits in the Top 48 Metabolites: 5
SM(d18:1/18:2), 6-weeks
  Linear Ratio: 1.424
  VIP Score: 1.508
  Z Abs: 0.750
  Z Score: 0.750
SM(d18:1/26:0 OH), 6-weeks
  Linear Ratio: 1.671
  VIP Score: 2.622
  Z Abs: 2.002
  Z Score: 2.002
[4]
  Decreased: 2
  Fold Enrichment (Obs/Exp): 0.4
  Fraction of Impact (VIP Score) Explained (% of 119.7): 3%
  Impact (Sum VIP Score): 3.6
  Increased: 0
  Observed Hits in the Top 61 Metabolites: 2
[5]
  Decreased: 0
  Fold Enrichment (Obs/Exp): 0.5
  Fraction of Impact (VIP Score) Explained (% of 94.6): 4%
  Impact (Sum VIP Score): 4.1
  Increased: 2
  Observed Hits in the Top 48 Metabolites: 2
[6]
  Decreased: 6
  Increased: 42
[7]
  Decreased: 23
  Increased: 38
[8]
  Decreased: 1
  Fold Enrichment (Obs/Exp): 3.5
  Fraction of Impact (VIP Score) Explained (% of 119.7): 2%
  Impact (Sum VIP Score): 2.0
  Increased: 0
  Observed Hits in the Top 61 Metabolites: 1
Tiglylglycine, 6-weeks
  Linear Ratio: 1.302
  VIP Score: 1.878
  Z Abs: 1.310
  Z Score: 1.310
[9]
  Decreased: 0
  Fold Enrichment (Obs/Exp): 1.5
  Fraction of Impact (VIP Score) Explained (% of 94.6): 2%
  Impact (Sum VIP Score): 2.1
  Increased: 1
  Observed Hits in the Top 48 Metabolites: 1
[10]
  Decreased: 0
  Fold Enrichment (Obs/Exp): 1.2
  Fraction of Impact (VIP Score) Explained (% of 119.7): 1%
  Impact (Sum VIP Score): 1.6
  Increased: 1
  Observed Hits in the Top 61 Metabolites: 1
[11]
  Decreased: 0
  Fold Enrichment (Obs/Exp): 2.4
  Fraction of Impact (VIP Score) Explained (% of 119.7): 2%
  Impact (Sum VIP Score): 1.8
